Reference: patent publication US6544991B2, “Compositions and methods for treating bacterial infections” (priority 2000, dated 2003)
Like-named read-outs stand apart in the source and are kept apart here.

Key:
VRSA strains = assay: MIC by agar dilution or microbroth dilution method (NCCLS), VRSA strains; format: cell-based, Staph. aureus; settings: VRSA strains (n = 10); for MIC: Staphylococcus aureus
Method: (§1) Bacterial isolates were obtained from human infections. The isolates were maintained frozen in a liquid nitrogen freezer and plated on Trypticase Soy Agar (TSA) plates supplemented with 5% sheep blood. The quality control strain Staph. aureus 29213 was originally acquired from the American Type Culture Collection (Rockville, Md.).
(§2) MICs were determined by an agar dilution method or microbroth dilution method recommended by NCCLS. Synergy was assessed by agar dilution checker-board method. Minimal inhibitory concentrations (MICS) for each separate drug were determined. The fractional inhibitory concentration (FIC) values were calculated by the MIC of Drug A (e.g., sulbactam/ampicillin) and Drug B (e.g., linezolid or arbekacin) in combination/MIC of Drug A or B alone. The FIC index was determined according to the following formula: [formula]
In total, 48 MRSA strains were tested, including ten VRSA strains isolated from five different countries in the world, 33 MRSA strains isolated from ten Japanese university hospitals, and five MRSA type strains from Juntendo University, Department of Bacteriology, Tokyo, Japan.

Staph. aureus 29213 = assay: MIC, quality control strain; format: cell-based; settings: Staphylococcus aureus, read-out: MIC Values
Method: as §1, §2

MRSA strains = assay: MIC by agar dilution or microbroth dilution method (NCCLS); format: cell-based, Staph. aureus; settings: for MIC: Staphylococcus aureus
Method: as §1, §2

For `NCC[C@H](O)C(=O)N[C@@H]1C[C@H](N)[C@@H](O[C@H]2O[C@H](CN)CC[C@H]2N)[C@H](O)[C@H]1O[C@H]1O[C@H](CO)[C@@H](O)[C@H](N)[C@H]1O` [ABK, arbekacin], which MIC (VRSA strains; read-out: MICs 50%) is on record?
The MIC was 1 µg/mL.

And the MIC (VRSA strains; read-out: MICs 90%)?
The MIC was 4 µg/mL.

And the “MICs Range” value (VRSA strains)?
The value was 0.125 to 4 mg/L.

What about the MIC (Staph. aureus 29213; ATCC29213, strain ATCC 29213, control sample (Ex. 26)) of the same compound?
Its MIC is 0.25 µg/mL.

And the MIC (Staph. aureus 29213; ATCC29213, strain ATCC29213, control sample (Ex. 37))?
The MIC was 0.25 µg/mL.

And the “MICs Range” value (MRSA strains; MRSA strains (n = 38))?
Its value is 0.125 to 4 mg/L.

What about the MIC (MRSA strains; MRSA / NCTC 10442, strain NCTC 10442, read-out: MIC Values) of the same compound?
Its MIC is 0.125 µg/mL.

And the MIC (MRSA strains; MRSA, MRSA strains (n = 38), read-out: MICs 50%)?
The MIC was 0.5 µg/mL.

And the MIC (MRSA strains; MRSA, MRSA strains (n = 38), read-out: MICs 90%)?
The MIC was 2 µg/mL.

What about the MIC (MRSA strains; MRSA, strain 85/2082, read-out: MIC Values) of the same compound?
The MIC was 0.25 µg/mL.

What about the MIC (MRSA strains; MRSA, strain 99.3700W, read-out: MIC Values) of the same compound?
The MIC was 4 µg/mL.

And the MIC (MRSA strains; MRSA, strain 99.3759V, read-out: MIC Values)?
Its MIC is 2 µg/mL.

And the MIC (MRSA strains; MRSA, strain AMC 11094, read-out: MIC Values)?
The MIC was 0.25 µg/mL.

What about the MIC (MRSA strains; MRSA, strain BM12612(new), read-out: MIC Values) of the same compound?
Its MIC is 2 µg/mL.

What about the MIC (MRSA strains; MRSA, strain H1, read-out: MIC Values) of the same compound?
Its MIC is 1 µg/mL.

What about the MIC (MRSA strains; MRSA, strain HIP 5827, read-out: MIC Values) of the same compound?
Its MIC is 1 µg/mL.

What about the MIC (MRSA strains; MRSA, strain HIP 5836, read-out: MIC Values) of the same compound?
The MIC was 1 µg/mL.

What about the MIC (MRSA strains; MRSA, strain HIP 6297, read-out: MIC Values) of the same compound?
Its MIC is 0.125 µg/mL.

And the MIC (MRSA strains; MRSA, strain HIP 7737, read-out: MIC Values)?
The MIC was 0.125 µg/mL.

What about the MIC (MRSA strains; MRSA, strain JSCC 340, read-out: MIC Values) of the same compound?
Its MIC is 1 µg/mL.

What about the MIC (MRSA strains; MRSA, strain JSCC 351, read-out: MIC Values) of the same compound?
The MIC was 1 µg/mL.

What about the MIC (MRSA strains; MRSA, strain JSCC 363, read-out: MIC Values) of the same compound?
Its MIC is 1 µg/mL.

What about the MIC (MRSA strains; MRSA, strain JSCC 381, read-out: MIC Values) of the same compound?
Its MIC is 0.5 µg/mL.

What about the MIC (MRSA strains; MRSA, strain JSCC 390, read-out: MIC Values) of the same compound?
Its MIC is 0.5 µg/mL.

What about the MIC (MRSA strains; MRSA, strain JSCC 401, read-out: MIC Values) of the same compound?
The MIC was 0.5 µg/mL.

And the MIC (MRSA strains; MRSA, strain JSCC 413, read-out: MIC Values)?
The MIC was 1 µg/mL.

And the MIC (MRSA strains; MRSA, strain JSCC 431, read-out: MIC Values)?
Its MIC is 1 µg/mL.

What about the MIC (MRSA strains; MRSA, strain JSCC 440, read-out: MIC Values) of the same compound?
The MIC was 0.25 µg/mL.

What about the MIC (MRSA strains; MRSA, strain JSCC 451, read-out: MIC Values) of the same compound?
Its MIC is 4 µg/mL.

And the MIC (MRSA strains; MRSA, strain JSCC 463, read-out: MIC Values)?
The MIC was 0.5 µg/mL.

What about the MIC (MRSA strains; MRSA, strain JSCC 481, read-out: MIC Values) of the same compound?
Its MIC is 1 µg/mL.

What about the MIC (MRSA strains; MRSA, strain JSCC 490, read-out: MIC Values) of the same compound?
The MIC was 0.5 µg/mL.

What about the MIC (MRSA strains; MRSA, strain JSCC 501, read-out: MIC Values) of the same compound?
The MIC was 0.5 µg/mL.

What about the MIC (MRSA strains; MRSA, strain JSCC 513, read-out: MIC Values) of the same compound?
The MIC was 0.25 µg/mL.

And the MIC (MRSA strains; MRSA, strain JSCC 531, read-out: MIC Values)?
The MIC was 0.5 µg/mL.

What about the MIC (MRSA strains; MRSA, strain JSCC 540, read-out: MIC Values) of the same compound?
Its MIC is 1 µg/mL.

What about the MIC (MRSA strains; MRSA, strain JSCC 551, read-out: MIC Values) of the same compound?
Its MIC is 2 µg/mL.

And the MIC (MRSA strains; MRSA, strain JSCC 563, read-out: MIC Values)?
Its MIC is 0.125 µg/mL.

What about the MIC (MRSA strains; MRSA, strain JSCC 581 (lacks the mecA gene), read-out: MIC Values) of the same compound?
The MIC was 0.5 µg/mL.

What about the MIC (MRSA strains; MRSA, strain JSCC 590 (lacks the mecA gene), read-out: MIC Values) of the same compound?
The MIC was 0.25 µg/mL.

What about the MIC (MRSA strains; MRSA, strain JSCC 601, read-out: MIC Values) of the same compound?
The MIC was 0.25 µg/mL.

What about the MIC (MRSA strains; MRSA, strain JSCC 640, read-out: MIC Values) of the same compound?
Its MIC is 2 µg/mL.

And the MIC (MRSA strains; MRSA, strain JSCC 651, read-out: MIC Values)?
The MIC was 1 µg/mL.

What about the MIC (MRSA strains; MRSA, strain JSCC 663, read-out: MIC Values) of the same compound?
The MIC was 0.5 µg/mL.

What about the MIC (MRSA strains; MRSA, strain JSCC 681, read-out: MIC Values) of the same compound?
Its MIC is 1 µg/mL.

And the MIC (MRSA strains; MRSA, strain JSCC 690, read-out: MIC Values)?
Its MIC is 2 µg/mL.

What about the MIC (MRSA strains; MRSA, strain JSCC 701, read-out: MIC Values) of the same compound?
The MIC was 1 µg/mL.

And the MIC (MRSA strains; MRSA, strain JSCC 713, read-out: MIC Values)?
Its MIC is 2 µg/mL.

And the MIC (MRSA strains; MRSA, strain JSCC 731, read-out: MIC Values)?
The MIC was 0.5 µg/mL.

What about the MIC (MRSA strains; MRSA, strain JSCC 740, read-out: MIC Values) of the same compound?
The MIC was 0.125 µg/mL.

What about the MIC (MRSA strains; MRSA, strain JSCC 751, read-out: MIC Values) of the same compound?
The MIC was 2 µg/mL.

And the MIC (MRSA strains; MRSA, strain JSCC 763, read-out: MIC Values)?
The MIC was 0.25 µg/mL.

What about the MIC (MRSA strains; MRSA, strain JSCC 781, read-out: MIC Values) of the same compound?
Its MIC is 2 µg/mL.

What about the MIC (MRSA strains; MRSA, strain JSCC 870, read-out: MIC Values) of the same compound?
Its MIC is 0.5 µg/mL.

What about the MIC (MRSA strains; MRSA, strain LIM 2, read-out: MIC Values) of the same compound?
The MIC was 1 µg/mL.

What about the MIC (MRSA strains; MRSA, strain Mu 3, read-out: MIC Values) of the same compound?
Its MIC is 2 µg/mL.

What about the MIC (MRSA strains; MRSA, strain Mu 50, read-out: MIC Values) of the same compound?
Its MIC is 4 µg/mL.

And the MIC (MRSA strains; MRSA, strain N315, read-out: MIC Values)?
The MIC was 0.5 µg/mL.
